Assay results: article PMC7154662, “Structural Insight into IAPP‐Derived Amyloid Inhibitors and Their Mechanism of Action” (Angewandte Chemie (International Ed. in English), 2020)
Non-standard residues stand in square brackets, D forms with d. Residues, ends and D or L forms follow the SMILES beside them. NMeI = CC[C@H](C)[C@H](NC)C(=O)O; Sar = CNCC(=O)O

Biological target: T1, R3-GI (Homo sapiens, UniProt P10997, N54R/S52R/S53R)
T1 construct: linking the two hot segments IAPP(8–18) and IAPP(22–28) in native or N‐methylated form; made in house; host or cells: chemical solid phase peptide synthesis (no expression host)
Assay: Fluorescence titration: self-association of Fluos-R3-GI with R3-GI
Conditions: Fluos-R3-GI 5 nM titrated with R3-GI; 10 mM sodium phosphate buffer, pH 7.4 (1% HFIP); room temperature, 2-5 min after solution preparation; excitation 492 nm; means (±SEM) from three binding curves; read-out: app. Kd for R3-GI self-association
From the text: Figure 1 R3‐GI self‐assembly. […] On the right, the binding curve is shown. The estimated app. […] Data are means (±SEM) from three binding curves. […] Scale bar: 10 μm.
The sampling of the 12 replicas was combined resulting in the ensemble of conformations were the statistical weight of each conformation is obtained by a simple reweighting scheme based on the final metadynamics bias B. The weight of a conformation X is given by w=exp(+B(X)/kBT), consistently with the quasi static behavior at convergence of well- […]
Coarse-grained modelling of R3-GI oligomers
To investigate the interaction of the peptides with each other, over 100 μs of coarse grain simulations were performed using GROMACS. An initial peptide model was created based on a representative structure from the atomistic ensemble. The Martini 2.2 force field was used to describe the peptide interaction together with the standard Martini water model.
Additionally, an elastic network was applied to conserve structural information. […]
Fluorescence spectroscopic titrations
A JASCO FP-6500 fluorescence spectrophotometer was used and titrations were performed as previously described. Briefly, excitation was at 492 nm and fluorescence emission spectra were recorded between 500 and 600 nm. […]
temperature within 2-5 min following solution preparation. The determined app. […]

T1 sequence (P10997 41-61 S52R/S53R/N54R): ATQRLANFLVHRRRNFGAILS

Kd: 77.1 nM
SMILES: CC[C@H](C)[C@@H](C(=O)N[C@@H](CC(C)C)C(=O)N[C@@H](CO)C(N)=O)N(C)C(=O)[C@H](C)NC(=O)CN(C)C(=O)[C@H](Cc1ccccc1)NC(=O)[C@H](CC(N)=O)NC(=O)[C@H](CCCNC(=N)N)NC(=O)[C@H](CCCNC(=N)N)NC(=O)[C@H](CCCNC(=N)N)NC(=O)[C@H](Cc1c[nH]cn1)NC(=O)[C@@H](NC(=O)[C@H](CC(C)C)NC(=O)[C@H](Cc1ccccc1)NC(=O)[C@H](CC(N)=O)NC(=O)[C@H](C)NC(=O)[C@H](CC(C)C)NC(=O)[C@H](CCCNC(=N)N)NC(=O)[C@H](CCC(N)=O)NC(=O)[C@@H](NC(=O)[C@H](C)N)[C@@H](C)O)C(C)C [R3-GI] (H-ATQRLANFLVHRRRNF[Sar]A[NMeI]LS-NH2)
